tested on: MIA-PACA2 pancreatic cancer cell lines; assay: Cell proliferation assay, alternate assay conditions (DAPI fluorescence); type: cell-based; settings: Homo sapiens, MIA PaCa-2; * = tested at 10 μM, alternate conditions, MIA-PACA2
Protocol: Cell lines: Tumor-derived pancreatic cancer cell lines MIA-PACA2 were purchased from ATCC and grown in complete DMEM-High Glucose medium supplemented with penicillin (100 U/mL), streptomycin (100 μg/mL), and 10% heat-inactivated FBS at 37° C. in a humidified incubator with 5% CO2.
Method: Cells are plated at 4000 cells/well density in 96-wells plate. The next day tested small molecules are added to the cells in the final concentration of 10 μM in the presence of 0.3% DMSO and 10% FBS. After small molecules addition, cells are incubated for 4 days at 37° C. in a humidified incubator with 5% CO2. For IC50 value determination, serial dilutions of compounds were added to cells under the same conditions.
Assay: At the end of the incubation period, cell cultures are fixed with a 50-50 mixture (v/v) acetone-methanol for 10 minutes at −20° C., followed by rehydration in PBS for 10 minutes at room temperature. After rehydration, cells are stained with DAPI (1 μg/ml) in PBS for 10 minutes at room temperature, followed by 3 washes with PBS. After staining, DAPI fluorescence is recorded (358 nm excitation/461 nm emission) with the 96-well plate reader Molecular Devices Spectramax M3; degree of small mole-cule-dependent proliferation inhibition is calculated from raw data assuming No Serum cells value as 100%.

First: COc1cnc(CNC(=O)c2cc3nc(-c4ccccn4)nc(O)c3s2)[nH]c1=O [drawing 1823]
Second: COc1cnc(CNC(=O)c2c(C)sc3c(O)nc(-c4ccccn4)nc23)[nH]c1=O [drawing 1825]
The inhibition at 10 µM of the first is higher: 25 to 50% for the first, 0% for the second.

First: Cc1sc2c(O)nc(-c3ccccn3)nc2c1Br [drawing 1824]
Second: COC(=O)c1nc(-c2ccccn2)nc(O)c1O [drawing 1849]
The inhibition at 10 µM of the first is higher: 76 to 100% for the first, 25 to 50% for the second.

`COc1cnc(CNC(=O)c2sc3c(O)nc(-c4ccccn4)nc3c2C)[nH]c1=O` [drawing 1826] and `Oc1nc(-c2ccccn2)nc2c(CC3CCNC3)csc12` (centres unmarked) [drawing 1828] are the same in inhibition at 10 µM: 0% for the first, 0% for the second.

`O=C(c1csc2c(O)nc(-c3ccccn3)nc12)N1CCNC(c2ccc(Cl)cc2)C1` (centres unmarked) [drawing 1827] and `Oc1nc(-c2ccccn2)nc2c(-c3ccccc3)c(-c3ccncc3)sc12` [drawing 1850] fall in the same range of inhibition at 10 µM: 76 to 100% for the first, 76 to 100% for the second.

First: O=c1[nH]c(-c2ccccn2)nc2c([C@@H]3O[C@H](CO)[C@@H](O)[C@H]3O)csc12 [drawing 1829]
Second: COc1ccc(COC[C@H]2O[C@@H](c3csc4c(=O)[nH]c(-c5ccccn5)nc34)[C@H](O)[C@@H]2O)cc1 [drawing 1835]
The inhibition at 10 µM of the first is higher: 76 to 100% for the first, 1 to 25% for the second.

`Cn1cnc(-c2nc(O)c3c(-c4ccccc4)c(-c4ccncc4)sc3n2)c1` [drawing 1830] and `COc1nc(-c2cn(C)cn2)nc2sc(-c3ccncc3)c(-c3ccccc3)c12` [drawing 1833] fall in the same range of inhibition at 10 µM: 76 to 100% for the first, 76 to 100% for the second.

`COCCNc1nc(-c2ccccn2)nc(-c2cccc(OCCN(C)C)c2)c1Oc1ccccc1` [drawing 1831] and `COCCNc1nc(-c2ccccn2)nc2c1c(-c1ccccc1)nn2-c1ccccn1` [drawing 1840] fall in the same range of inhibition at 10 µM: 76 to 100% for the first, 76 to 100% for the second.

`COCCNc1nc(-c2cn(C)cn2)nc2sc(-c3ccncc3)c(-c3ccccc3)c12` [drawing 1832] and `COCCNc1nc(-c2nccn2C)nc2sc(-c3ccccc3)c(-c3ccccc3)c12` [drawing 1837] fall in the same range of inhibition at 10 µM: 76 to 100% for the first, 76 to 100% for the second.

`OCC1(c2ccc(-c3nc(-c4ccccn4)nc(-c4ccc(C5(CO)CC5)cc4)c3Oc3ccccc3)cc2)CC1` [drawing 1834] and `OCC1(c2ccc(-c3nc(-c4ccccn4)nc(O)c3Oc3ccccc3)cc2)CC1` [drawing 1836] fall in the same range of inhibition at 10 µM: 76 to 100% for the first, 76 to 100% for the second.

`Cn1ccnc1-c1nc(O)c2c(-c3ccccc3)c(-c3ccccc3)sc2n1` [drawing 1838] and `Cn1cnc(-c2nc(O)c3sc(-c4ccncc4)c(-c4ccccc4)c3n2)c1` [drawing 1851] fall in the same range of inhibition at 10 µM: 76 to 100% for the first, 76 to 100% for the second.

Compared with `Cn1cnc(-c2nc(O)c3c(-c4ccccc4)c(-c4ccc(CNC(=O)OC(C)(C)C)cc4)sc3n2)c1` [drawing 1839], `Oc1nc(-c2ccccn2)nc2c1c(-c1ccccc1)nn2-c1ccccn1` [drawing 1841] is higher in inhibition at 10 µM: 25 to 50% for the first, 76 to 100% for the second.

`COc1nc(-c2ccccn2)nc2c1c(-c1ccccc1)nn2-c1ccccn1` [drawing 1842] and `Nc1nc(-c2ccccn2)nc(C(=O)NCCc2ccncc2)c1Oc1ccccc1` [drawing 1853] fall in the same range of inhibition at 10 µM: 76 to 100% for the first, 76 to 100% for the second.

Compared with `Nc1nc(O)c2sc(-c3cccc(C(=O)NC4CCNC4=O)c3)cc2n1` (centres unmarked) [drawing 1844], `Nc1nc(O)c2sc(-c3cccc(C(=O)NCc4ncc[nH]4)c3)cc2n1` [drawing 1847] is higher in inhibition at 10 µM: 0% for the first, 1 to 25% for the second.

Compared with `Nc1nc(O)c2sc(-c3cccc(C(=O)N4CCC(O)C4)c3)cc2n1` (centres unmarked) [drawing 1845], `NC(=O)C1CCCN1C(=O)c1cccc(-c2cc3nc(N)nc(O)c3s2)c1` (centres unmarked) [drawing 1846] is higher in inhibition at 10 µM: 1 to 25% for the first, 51 to 75% for the second.

First: Nc1nc(O)c2sc(-c3cccc(C(=O)NCc4cccc(O)n4)c3)cc2n1 [drawing 1848]
Second: COc1nc(-c2ccccn2)nc(Oc2cccc(C(F)(F)F)c2)c1OC [drawing 1854]
The inhibition at 10 µM of the first is lower: 1 to 25% for the first, 76 to 100% for the second.

With `COCC(C)Nc1nc(-c2ccccn2)nc(C(=O)NCCCc2c[nH]cn2)c1Oc1ccccc1` (centres unmarked) [drawing 1852] the inhibition at 10 µM was 76 to 100%.

same assay, conditions: Homo sapiens, MIA PaCa-2; MIA-PACA2, same assay as the % inhibition (alternate conditions)

In the case of `COCCNc1nc(-c2nccn2C)nc2sc(-c3ccccc3)c(-c3ccccc3)c12` [drawing 1837], the IC50 is reported as 501 to 1000 nM.

Reference: patent US10940139B2, “Compounds that interact with the Ras superfamily for the treatment of cancers, inflammatory diseases, rasopathies, and fibrotic disease” (Shy Therapeutics LLC, priority 2017, dated 2021)
